Results from paper doi:10.1101/2025.04.28.650843v1, “The structure of phycobilisome with a bicylindrical core from the cyanobacterium Synechococcus elongatus PCC 7942” (biorxiv, 2025).

Key:
Assay in all cases: cryo-EM structure of phycobilisome, […] Å
Format in all cases: binding
ApcD = molecular target: T1, ApcD (Synechococcus elongatus, UniProt Q31RP7); details: covalent; terminal emitter; pH 7.0
T1 construct: gene Synpcc7942_0240; native subunit in phycobilisome core (trimer 4), glutaraldehyde cross-linked
T1 sequence (Q31RP7 1-163): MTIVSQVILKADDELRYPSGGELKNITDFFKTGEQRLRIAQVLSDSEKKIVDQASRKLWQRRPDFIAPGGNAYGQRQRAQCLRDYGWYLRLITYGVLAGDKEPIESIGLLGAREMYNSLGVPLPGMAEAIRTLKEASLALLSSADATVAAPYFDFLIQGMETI

ApcE (LCM), αApcE domain = molecular target: T2, ApcE (LCM), αApcE domain (Synechococcus elongatus, UniProt Q31RF9); details: covalent, terminal emitter, pH 7.0
T2 construct: gene Synpcc7942_0328; native ApcE with two REP domains in phycobilisome core (trimer 3), glutaraldehyde cross-linked; bilin in N-terminal αApcE domain
T2 sequence (Q31RF9 1-705): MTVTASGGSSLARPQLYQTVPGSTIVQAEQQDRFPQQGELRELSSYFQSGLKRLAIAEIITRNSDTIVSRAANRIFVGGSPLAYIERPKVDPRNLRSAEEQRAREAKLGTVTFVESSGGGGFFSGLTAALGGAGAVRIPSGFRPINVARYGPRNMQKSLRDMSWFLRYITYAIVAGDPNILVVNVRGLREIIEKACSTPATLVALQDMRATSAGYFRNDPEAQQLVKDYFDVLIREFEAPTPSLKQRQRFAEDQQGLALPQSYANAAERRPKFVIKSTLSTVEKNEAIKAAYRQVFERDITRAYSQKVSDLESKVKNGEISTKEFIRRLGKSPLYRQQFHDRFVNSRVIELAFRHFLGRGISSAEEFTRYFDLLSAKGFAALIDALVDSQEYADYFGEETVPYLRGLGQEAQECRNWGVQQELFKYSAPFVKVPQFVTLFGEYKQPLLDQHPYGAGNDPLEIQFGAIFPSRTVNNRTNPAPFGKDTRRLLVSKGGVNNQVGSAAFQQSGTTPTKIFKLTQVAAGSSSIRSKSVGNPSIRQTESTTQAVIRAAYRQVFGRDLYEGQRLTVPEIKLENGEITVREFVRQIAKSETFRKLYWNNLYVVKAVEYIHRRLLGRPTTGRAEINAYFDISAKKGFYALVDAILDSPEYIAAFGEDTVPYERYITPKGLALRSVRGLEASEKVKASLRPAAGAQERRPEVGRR

ApcF = molecular target: T3, ApcF (Synechococcus elongatus, UniProt O50209); details: covalent; pH 7.0
T3 construct: native subunit in phycobilisome core, glutaraldehyde cross-linked
T3 sequence (O50209 1-169): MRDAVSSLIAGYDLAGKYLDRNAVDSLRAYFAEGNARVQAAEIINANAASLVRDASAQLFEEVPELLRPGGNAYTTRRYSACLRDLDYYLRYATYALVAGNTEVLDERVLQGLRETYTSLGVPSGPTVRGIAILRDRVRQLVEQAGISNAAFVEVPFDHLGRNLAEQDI

For `C/C=C1/C(=C/C2=NC(=C\c3[nH]c(/C=C4\NC(=O)C(CC)=C4C)c(C)c3CCC(=O)O)/C(CCC(=O)O)=C2C)NC(=O)[C@@H]1C` [phycocyanobilin], the “cryo-EM structure of phycobilisome, 2.98 Å” value (from here on “cryo-EM structure”) (ApcD) was “terminal emitters (ApcD and the α^ApcE domain) are deduced based on the shortest distances”, the “cryo-EM structure” value (ApcE (LCM), αApcE domain) was “terminal emitters (ApcD and the α^ApcE domain) are deduced based on the shortest distances” and the “cryo-EM structure” value (ApcF) was “Bilins in rods and core are painted the same colors as the corresponding proteins”.
